In assay [1] the target is wild-type human cardiac sodium channel, hNaV 1.5 (Peak INa) (Homo sapiens, UniProt Q14524). The experiment in a line: Peak INa screening assay (tonic block and use-dependent block). It is filed as cell-based. The procedure: The assay uses an HEK293 (human embryonic kidney) cell line heterologously expressing the wild-type human cardiac sodium channel, hNaV 1.5, purchased from Millipore (Billerica, Mass.). No beta subunits were coexpressed with the Na channel alpha subunit. Cells are maintained with standard tissue culture procedures and stable channel expression is maintained with 400 μg/mL Geneticin in the culture medium. […] Currents are digitized at 25 kHz and low-pass filtered at 5 kHz and stored in the Sophion Bioscience Oracle database (Sophion Bioscience, Copenhagen, Denmark). Analysis is performed using QPatch Assay software and data are compiled in Excel 2010 (Microsoft, Seattle, Wash., U.S.A.). Compound stocks are routinely made by the Gilead Sample Bank in vials to 10 mM in dimethyl sulfoxide (DMSO). In some cases, when compounds are not soluble in DMSO, they are made in 100% ethanol. Stocks are sonicated as necessary. The extracellular solution for screening Late INa is composed of: 140 mM NaCl, 4 mM KCl, 1.8 mM CaCl2, 1 mM MgCl2, 10 mM HEPES and 10 mM Dextrose with pH adjusted to 7.35 using NaOH. The intracellular solution contains: 105 mM CsF, 20 mM CsCl, 10 NaF, 2 mM EGTA, 10 mM HEPES and 10 mM Dextrose with pH adjusted to 7.35 with CsOH. Compounds are diluted in extracellular solution using a MicroLab Nimbus (Hamilton Robotics, Reno, Nev.) to between 0.3 and 3 μM in glass vials and transferred to glass well plates before robotic addition to the cells. […] It is contemplated that the compounds of Formula I avoid significant block of peak INa. […] The intracellular solution used for the Peak INa assay is the same as outlined for the Late INa assay (see above). After establishing the whole cell recording configuration, channels were stimulated to open with low frequency (0.1 Hz) for so that the recording can be monitored and the extent to which the recording has stabilized can be assessed. The test compound is then applied at 1 or 3 μM was added 2 times at 60 second intervals. After the second compound addition, a 200 second wait period was imposed to allow for equilibration. Voltage protocols for TB and UDB are were performed in the absence and presence of compound and TB and UDB are calculated with respect to the compound free condition. Both TB and UDB were analyzed by incorporating rundown correction for the peak INa.

Another assay concerns the target hNaV1.1 (SCN1A) (Homo sapiens, UniProt P35498). The experiment in a line: Use-dependent inhibition of the CNS NaV1.1 sodium channel. It is filed as cell-based. The following applies: % inhibition, 25 Hz; for inhibition at 1 µM: use-dependent block at 1 uM, read-out: Nav1.1 UDB 25 Hz 1 uM; for inhibition at 10 µM: use-dependent block at 10 uM, read-out: Nav1.1 UDB 25 Hz 10 uM. The procedure: HEK-293 cells stably expressing wild-type (WT) hNaV1.1 (SCN1A, NCBI# AB09354) were obtained from Millipore (Cat. # CYL3009) were used to record INa. Cells are maintained with standard tissue culture procedures and stable channel expression is maintained with 400 ug/mL G418 in the culture medium. Unless otherwise noted, all reagents are purchased from Sigma-Aldrich (St Louis, Mo., U.S.A.).
Assays measuring Use-Dependent Block (UDB) of NaV1.2 are performed on an automated electrophysiology platform, QPatch 16X or QPatch HT (Sophion Bioscience, Copenhagen, Denmark), using the whole cell patch clamp technique to measure currents through the cell membrane. Series resistance compensation is set to 100% and series resistance and whole-cell compensation are performed automatically. Currents stored in the Sophion Bioscience Oracle database (Sophion Bioscience, Copenhagen, Denmark). Analysis is performed using QPatch Assay software and data are compiled in Excel 2010 (Microsoft, Seattle, Wash., U.S.A.).
The internal (pipette) solution consists of (in mM) 105 CsF, 10 NaF, 20 CsCl, 2 EGTA, 10 HEPES, 10 Dextrose with a pH of 7.35 and osmolarity of 300 mOsmol/kg. The external (bath) solution contains in (mM): 145 NaCl, 4 KCl, 1.8 CaCl2, 1 MgCl2, 10 dextrose, 10 HEPES, with a pH of 7.35 and osmolarity of 310 mOsmol/kg. Experiments are carried out at 23-25° C.
Compound stocks are routinely made by the Gilead Sample Bank in vials to 10 mM in dimethyl sulfoxide (DMSO). In some cases, when compounds are not soluble in DMSO, they are made in 100% ethanol. Stocks are sonicated as necessary. […]
Cells are allowed to stabilize for 10 min after establishment of the whole-cell configuration before current is measured. The test compound is applied 2 times at 60 second intervals. After the second compound addition, a 200 second wait period was imposed to allow for equilibration.
Leak currents are subtracted by using an online P/4 procedure and all currents are low-pass Bessel filtered at 5 kHz and digitized at […].
Use-dependent block of NaV1.2 peak current is measured during pulse number 20 of a voltage pulse train (0 mV, 20 ms, 20 pulses, 25 Hz) from a holding potential of −120 mV. Currents are normalized to the peak current recorded in response to the first pulse in each frequency train. The voltage protocol for UDB was performed in the absence and presence of compound and percentage inhibition was calculated with respect to the compound free condition. Results are presented as mean percentage inhibition and data analysis is performed using QPatch Assay Software 4.0, and Excel 2002 (Microsoft, Seattle, Wash., U.S.A.).

[2] abbreviates: % inhibition, use-dependent block of peak INa at 3 uM, 3 Hz, pulse 50, read-out: Nav1.5 Peak UDB 3 Hz 3 uM.
[3] abbreviates: read-out: Nav1.5 Peak TB 3 uM, % inhibition, tonic block of peak INa at 3 uM, 0.1 Hz, holding -100 mV.

Where two headings read alike, the source gives them in different places.

wild-type human cardiac sodium channel, hNaV 1.5 (Peak INa), sequence (Q14524 whole entry): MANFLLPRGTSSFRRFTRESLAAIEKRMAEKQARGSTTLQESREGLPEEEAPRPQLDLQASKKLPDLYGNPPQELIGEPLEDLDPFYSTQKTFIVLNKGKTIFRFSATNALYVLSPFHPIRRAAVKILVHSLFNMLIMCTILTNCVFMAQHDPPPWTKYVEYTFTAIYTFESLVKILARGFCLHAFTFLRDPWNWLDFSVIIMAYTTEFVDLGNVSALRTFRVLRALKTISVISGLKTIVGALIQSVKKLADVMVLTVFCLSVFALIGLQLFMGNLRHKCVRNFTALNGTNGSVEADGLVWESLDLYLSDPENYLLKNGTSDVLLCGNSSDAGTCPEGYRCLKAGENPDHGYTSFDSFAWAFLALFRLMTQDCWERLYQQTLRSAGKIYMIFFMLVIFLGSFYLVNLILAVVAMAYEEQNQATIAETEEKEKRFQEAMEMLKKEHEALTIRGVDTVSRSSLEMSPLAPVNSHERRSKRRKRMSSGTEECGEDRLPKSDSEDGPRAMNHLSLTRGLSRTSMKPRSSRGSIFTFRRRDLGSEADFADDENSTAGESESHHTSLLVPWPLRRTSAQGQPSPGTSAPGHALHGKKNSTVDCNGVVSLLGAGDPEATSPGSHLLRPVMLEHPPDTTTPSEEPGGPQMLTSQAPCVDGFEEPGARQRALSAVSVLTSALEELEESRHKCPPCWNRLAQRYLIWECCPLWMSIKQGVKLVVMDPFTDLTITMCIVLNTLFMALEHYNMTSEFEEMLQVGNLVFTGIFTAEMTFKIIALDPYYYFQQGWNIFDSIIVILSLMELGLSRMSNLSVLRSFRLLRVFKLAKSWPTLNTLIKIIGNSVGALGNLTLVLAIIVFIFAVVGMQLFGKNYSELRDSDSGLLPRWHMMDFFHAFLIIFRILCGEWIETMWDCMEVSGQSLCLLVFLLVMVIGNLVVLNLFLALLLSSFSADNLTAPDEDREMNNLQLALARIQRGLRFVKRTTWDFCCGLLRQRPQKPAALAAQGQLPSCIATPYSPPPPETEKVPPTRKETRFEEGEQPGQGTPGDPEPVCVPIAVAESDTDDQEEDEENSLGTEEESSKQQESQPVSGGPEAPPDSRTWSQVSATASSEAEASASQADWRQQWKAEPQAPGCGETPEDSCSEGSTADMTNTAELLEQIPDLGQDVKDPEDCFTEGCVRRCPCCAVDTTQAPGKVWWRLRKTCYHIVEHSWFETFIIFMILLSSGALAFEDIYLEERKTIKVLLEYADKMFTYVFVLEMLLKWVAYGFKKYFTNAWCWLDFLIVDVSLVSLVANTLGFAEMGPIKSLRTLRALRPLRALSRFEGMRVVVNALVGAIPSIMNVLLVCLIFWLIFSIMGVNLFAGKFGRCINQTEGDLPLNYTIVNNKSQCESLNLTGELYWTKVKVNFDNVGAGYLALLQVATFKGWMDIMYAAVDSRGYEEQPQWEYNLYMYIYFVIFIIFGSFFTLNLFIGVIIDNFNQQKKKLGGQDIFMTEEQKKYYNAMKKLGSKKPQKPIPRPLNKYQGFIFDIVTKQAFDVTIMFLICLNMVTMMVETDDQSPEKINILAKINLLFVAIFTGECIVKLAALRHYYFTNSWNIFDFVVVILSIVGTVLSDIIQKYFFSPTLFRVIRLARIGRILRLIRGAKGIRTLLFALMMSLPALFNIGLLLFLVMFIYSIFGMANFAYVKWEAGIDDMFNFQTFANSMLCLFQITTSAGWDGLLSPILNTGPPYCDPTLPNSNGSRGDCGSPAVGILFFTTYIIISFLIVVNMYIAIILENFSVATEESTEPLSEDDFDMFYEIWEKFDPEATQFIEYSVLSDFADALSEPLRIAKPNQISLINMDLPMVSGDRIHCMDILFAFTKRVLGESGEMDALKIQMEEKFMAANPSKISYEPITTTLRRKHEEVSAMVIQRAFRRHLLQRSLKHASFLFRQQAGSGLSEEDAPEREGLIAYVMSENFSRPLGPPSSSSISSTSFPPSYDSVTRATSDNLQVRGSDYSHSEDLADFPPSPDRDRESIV

As to `O=C1Oc2ccc(-c3ccc(OC(F)(F)F)cc3F)cc2CN1Cc1ncccn1` [Example 7, 6-(2-fluoro-4-(trifluoromethoxy)phenyl)-3-(pyrimidin-2-ylmethyl)-3,4-dihydro-2H-benzo[e][1,3]oxazin-2-one], the inhibition at 3 µM in assay [1] (setting [2]) was below 5%. Moreover, in assay [1] (setting [3]), the inhibition at 3 µM came out at 14.9%. For the same compound, at hNaV1.1 (SCN1A), the inhibition at 1 µM was found to be 5.7% and the inhibition at 10 µM was 42.4%.
With `Cc1cc(OC(F)(F)F)ccc1-c1ccc2c(c1)CN(Cc1ccccn1)C(=O)O2` [Example 23, 6-(2-methyl-4-(trifluoromethoxy)phenyl)-3-(pyridin-2-ylmethyl)-3,4-dihydro-2H-benzo[e][1,3]oxazin-2-one], the inhibition at 3 µM in assay [1] (setting [2]) is below 5%. The inhibition at 3 µM in assay [1] (setting [3]) came to 19.4%. Besides, on hNaV1.1 (SCN1A), the inhibition at 1 µM worked out at 5.2% and the inhibition at 10 µM is 75.2%.
Taken in the same sequence, the figures for `O=C1Oc2ccc(-c3ccc(C4(C(F)(F)F)CC4)cc3)cc2CN1Cc1ncccn1` [Example 38, 3-(pyrimidin-2-ylmethyl)-6-(4-(1-(trifluoromethyl)cyclopropyl)phenyl)-3,4-dihydro-2H-benzo[e][1,3]oxazin-2-one] were below 5%, 55.6%, 49% and 78.1%.
For the compound `O=C1Oc2ccc(-c3ccc(OC(F)(F)F)cc3)cc2CN1Cc1ccccn1` [Example 20, 3-(pyridin-2-ylmethyl)-6-(4-(trifluoromethoxy)phenyl)-3,4-dihydro-2H-benzo[e][1,3]oxazin-2-one], the inhibition at 3 µM in assay [1] (setting [2]) is 5.1%; in assay [1] (setting [3]), 32.8%. On hNaV1.1 (SCN1A), the inhibition at 1 µM was 29.1%. Also, at hNaV1.1 (SCN1A), the inhibition at 10 µM is 82%.
As for `Cc1cnc(CN2Cc3cc(-c4ccc(C(F)(F)F)cc4F)ccc3OC2=O)nc1` [Example 41, 6-(2-fluoro-4-(trifluoromethyl)phenyl)-3-((5-methylpyrimidin-2-yl)methyl)-3,4-dihydro-2H-benzo[e][1,3]oxazin-2-one], the inhibition at 3 µM in assay [1] (setting [2]) was below 5%; in assay [1] (setting [3]) it was 17.5%. Besides, the inhibition at 1 µM at hNaV1.1 (SCN1A) is below 5%. Besides, the inhibition at 10 µM on hNaV1.1 (SCN1A) came out at 29%.
Take `COc1cc(OC(F)(F)F)ccc1-c1ccc2c(c1)CN(Cc1ccccn1)C(=O)O2` [Example 22, 6-(2-methoxy-4-(trifluoromethoxy)phenyl)-3-(pyridin-2-ylmethyl)-3,4-dihydro-2H-benzo[e][1,3]oxazin-2-one]: the figures for the inhibition at 3 µM in assay [1] (setting [2]) and in assay [1] (setting [3]) were below 5% and 24.9%, respectively. In addition, on hNaV1.1 (SCN1A), the inhibition at 1 µM was below 5%. The inhibition at 10 µM on hNaV1.1 (SCN1A) stood at 56.3%.
On to `O=C1Oc2ccc(-c3ccc(C(F)(F)F)cc3F)cc2CN1Cc1ncccn1` [Example 36, 6-(2-fluoro-4-(trifluoromethyl)phenyl)-3-(pyrimidin-2-ylmethyl)-3,4-dihydro-2H-benzo[e][1,3]oxazin-2-one], for which the figures for the inhibition at 3 µM in assay [1] (setting [2]) and in assay [1] (setting [3]) were 5.9% and 11.5%, respectively. For the same compound, at hNaV1.1 (SCN1A), the inhibition at 1 µM worked out at 22.8%. Besides, the inhibition at 10 µM at hNaV1.1 (SCN1A) was 68.7%.
For `CCCOc1cc(C(F)(F)F)ccc1-c1ccc2c(c1)CN(Cc1ncccn1)C(=O)O2` [Example 27, 6-(2-propoxy-4-(trifluoromethyl)phenyl)-3-(pyrimidin-2-ylmethyl)-3,4-dihydro-2H-benzo[e][1,3]oxazin-2-one], the inhibition at 3 µM in assay [1] (setting [2]) is 8.1%. For the same compound, in assay [1] (setting [3]), the inhibition at 3 µM came out at 32%. Moreover, on hNaV1.1 (SCN1A), the inhibition at 1 µM amounted to 28.4% and the inhibition at 10 µM was found to be 77.5%.
Taken in the same sequence, the figures for `Cc1csc(CN2Cc3cc(-c4ccc(OC(F)(F)F)c(F)c4)ccc3OC2=O)n1` [Example 53, 6-(3-fluoro-4-(trifluoromethoxy)phenyl)-3-((4-methylthiazol-2-yl)methyl)-3,4-dihydro-2H-benzo[e][1,3]oxazin-2-one] were below 5%, 19.8%, 52.7% and 87.6%.
For `COc1cc(OC(F)(F)F)ccc1-c1ccc2c(c1)CN(Cc1cccc(C)n1)C(=O)O2` [Example 46, 6-(2-methoxy-4-(trifluoromethoxy)phenyl)-3-((6-methylpyridin-2-yl)methyl)-3,4-dihydro-2H-benzo[e][1,3]oxazin-2-one] the same measures were below 5%, 34.7%, 19% and 78.6%.
With `O=C1Oc2ccc(-c3ccc(OC(F)(F)F)c(F)c3)cc2CN1Cc1ncccn1` [Example 10, 6-(3-fluoro-4-(trifluoromethoxy)phenyl)-3-(pyrimidin-2-ylmethyl)-3,4-dihydro-2H-benzo[e][1,3]oxazin-2-one], in assay [1] (setting [2]), the inhibition at 3 µM came out at 10.8%. For the same compound, the inhibition at 3 µM in assay [1] (setting [3]) worked out at 14.2%. At hNaV1.1 (SCN1A), the inhibition at 1 µM turned out to be 35% and the inhibition at 10 µM worked out at 75.9%.
Turning to `Cc1cccc(CN2Cc3cc(-c4ccc(OC(F)(F)F)cc4F)ccc3OC2=O)n1` [Example 47, 6-(2-fluoro-4-(trifluoromethoxy)phenyl)-3-((6-methylpyridin-2-yl)methyl)-3,4-dihydro-2H-benzo[e][1,3]oxazin-2-one], the inhibition at 3 µM in assay [1] (setting [2]) was below 5%. Further, in assay [1] (setting [3]), the inhibition at 3 µM is 44.3%. On hNaV1.1 (SCN1A), the inhibition at 1 µM is below 5% and the inhibition at 10 µM was 69.2%.
In the case of `Cc1cnc(CN2Cc3cc(-c4ccc(OC(F)(F)F)cc4)ccc3OC2=O)nc1` [Example 12, 3-((5-methylpyrimidin-2-yl)methyl)-6-(4-(trifluoromethoxy)phenyl)-3,4-dihydro-2H-benzo[e][1,3]oxazin-2-one], in assay [1] (setting [2]), the inhibition at 3 µM was below 5%. Further, the inhibition at 3 µM in assay [1] (setting [3]) came out at 16.6%. Further, on hNaV1.1 (SCN1A), the inhibition at 1 µM came to 7.5% and the inhibition at 10 µM was found to be 73.9%.
With `O=C1Oc2ccc(-c3ccc(OC(F)(F)F)cc3)cc2CN1CCc1ncccn1` [Example 16, 3-(2-(pyrimidin-2-yl)ethyl)-6-(4-(trifluoromethoxy)phenyl)-3,4-dihydro-2H-benzo[e][1,3]oxazin-2-one], the inhibition at 3 µM in assay [1] (setting [2]) was 5.3%; in assay [1] (setting [3]), 22.1%. At hNaV1.1 (SCN1A), the inhibition at 1 µM is 17.3%. Also, the inhibition at 10 µM on hNaV1.1 (SCN1A) stood at 52.2%.
`O=C1Oc2ccc(-c3ccc(Cl)c(F)c3)cc2CN1Cc1ncccn1` [Example 6, 6-(4-chloro-3-fluorophenyl)-3-(pyrimidin-2-ylmethyl)-3,4-dihydro-2H-benzo[e][1,3]oxazin-2-one]: the inhibition at 3 µM in assay [1] (setting [2]) was below 5%. The inhibition at 3 µM in assay [1] (setting [3]) is 19.9%. Further, at hNaV1.1 (SCN1A), the inhibition at 1 µM turned out to be 26.7% and the inhibition at 10 µM is 65.2%.

For the origin of these results see patent US9416128B2, “Fused heterocyclic compounds as ion channel modulators” (Gilead Sciences, Inc., priority 2013, dated 2016).
